Several values for one entry are separate records, joined by “and”; a condition that tells them apart may be missing. Equal values may be shown once. Read-outs that look alike come from different tables or passages of the source. Values belong to the compound of their own block, whether it stands above or below them.
Legend:
[1] = test system: Caco-2 cell; parameters: method as in earlier work; conditions: cited from earlier work
[2] = test system: rat intestine; test: four-site single-pass perfused rat intestinal model; assay type: in vivo; parameters: P*eff Duodenum / P*eff Jejunum / P*eff Ileum: unit not given here
Method: The absorptions of SSA, SSD and paeoniflorin in different intestinal segments were studied by the rat intestinal perfusion model. The concentrations of all the compounds of interest were 20 μmol·L^−1. The concentrations of the compounds in the perfusate samples were analyzed by UPLC or LC/MS, and then the P*eff and […] of SSA, SSD and paeoniflorin were calculated.
The perfusion protocol was approved by the Animal Ethics Committee of Jiangsu Provincial Academy of Chinese Medicine. The intestinal surgical procedures were described in our previous publications. Briefly, rats were anesthetized with an intra-muscular injection of urethane (0.5 g mL^−1) and placed on a heated surface maintained at its normal body temperature. Four segments of intestine, duodenum, jejunum, ileum, and colon (8–12 cm) were simultaneously cannulated with no disruption of circulation to the intestine, each with two cannulae. After cannulation, the small intestinal segments were placed carefully into the abdominal cavity, avoiding crimping or kinking of the segments. To keep the temperature of the perfusate constant, the inlet cannulate was kept warm by a 37 °C circulating water bath.
This is a single-pass perfusion method. Four segments of the intestine (duodenum, upper jejunum, terminal ileum, and colon) were perfused simultaneously with a perfusate containing the compound of interest using an infusion pump (Harvard Apparatus, Cambridge, MA, USA) at a flow rate of 0.2 mL min^−1. After a 30-min washout period, which is usually sufficient to achieve the steady-state absorption, four samples were collected from the outlet cannulae every 30 min afterward. After perfusion, the length of the intestine was measured as described previously. The outlet concentrations of the test compounds in the luminal perfusate were determined by HPLC or LC/MS.
The outlet concentrations of SSA and SSD were determined by LC/MS using a HPLC-Agilent 6410 Triple Quad (Agilent, Palo Alto, CA, USA) system equipped with an atmospheric-pressure chemical ionization source. The samples were separated on a Zorbax SB-C18 column (250 mm × 4.6 mm, 5 μm, Agilent) and Zorbax SB-C18 precolumn (4.6 × 12.5 mm, […], Agilent). The mobile phase consisted of acetonitrile and water (40:60, v/v), and the flow rate was 0.4 mL·min^−1. The column temperature was maintained at 35 °C and the injection volume was 20 μL. For MS analysis, atmospheric-pressure chemical ionization (APCI) source was operated in the negative ion mode. The selected parameters were as follows: drying nitrogen gas at 350 °C and a flow-rate of […]; nebulizer pressure at 20 p.s.i.g. (1 p.s.i. = 6894.76 Pa); vaporizer temperature at 325 °C; capillary voltage at 4,500 V and corona current at 4 μA. The chromatograms obtained for quantitation were recorded under time-scheduled SIM, with fragmentor voltages was set at 150 V. The scan range was from m/z 250 to m/z 1,000. The instrument was programmed for a scan dwell time of 200 ms. Intense […] ions at m/z 781 and m/z 255 were shown for SSA (SSD) and chrysin(internal standard). In general, these methods were selective and reproducible with day to day variability of less than 3%. The tested linear response range for SSA and SSD was 0.625 to 80 μM. The accuracy and precision were greater than 98%. The recovery of three different concentrations was around 90.91%~92.66%, and RSD was less than 5% (n = 5).
UPLC was used to analyze the concentration of paeoniflorin in the perfusate samples. The conditions were as follows: Waters Acquity™ system, with diode array detector and Empower software; column, Acquity UPLC BEH C-18 1.7 μm, 50 × 2.1 mm, (Waters, Milford, MA, USA); mobile phase A, water; mobile phase B, acetonitrile; gradient, 0~0.8 min, 15~22% B, 0.8~1.0 min, 22% B, 1.0~1.5 min, 35% B, 1.5~2.2 min, 70% B; flow rate, 0.4 mL·min^−1; wavelength 230 nm (paeoniflorin) and 245 nm (testosterone, the internal standard); column temperature, 35 °C; injection volume, 10 μL. […]

[3] = co-administrated with SSA, colon
[4] = co-administrated with SSA, ileum
[5] = co-administration with SSD, colon
[6] = co-administration with SSD, ileum
[7] = compound alone, 20 μmol·L−1, colon, n = 4
[8] = compound alone, 20 μmol·L−1, duodenum, n = 4
[9] = compound alone, 20 μmol·L−1, ileum, n = 4
[10] = compound alone, 20 μmol·L−1, jejunum, n = 4

- P*eff Colon ([2]; co-administrated with SSA (20:20 μmol·L−1), colon): 0.636 ± 0.034
- P*eff Duodenum ([2]; co-administrated with SSA (20:20 μmol·L−1), duodenum): 0.279 ± 0.049
- P*eff Ileum ([2]; co-administrated with SSA (20:20 μmol·L−1), ileum): 0.665 ± 0.053
- P*eff Jejunum ([2]; co-administrated with SSA (20:20 μmol·L−1), jejunum): 0.263 ± 0.029
- fold increase of 10% ABS vs individual compound [2, 3]: 1.25 fold
- fold increase of P*eff vs individual compound [2, 3]: 1.90 fold
- fold increase of 10% ABS vs individual compound [2, 4]: 1.40 fold
- fold increase of P*eff vs individual compound [2, 4]: 2.11 fold and ~2.11 fold
- P*eff Colon ([2]; co-administrated with SSD, colon): 0.696 ± 0.054
- P*eff Duodenum ([2]; co-administrated with SSD, duodenum): 0.304 ± 0.048
- P*eff Ileum ([2]; co-administrated with SSD, ileum): 0.731 ± 0.052
- P*eff Jejunum ([2]; co-administrated with SSD, jejunum): 0.280 ± 0.051
- 10 cm % ABS Colon ([2]; co-administration with SSA (20:20 μmol·L−1), colon, n = 4): 12.07 ± 0.46 * %
- 10 cm % ABS Colon ([2]; co-administration with SSA (20:20 μmol·L−1), colon, n = 4, listed as paeoniflorin): 12.07 ± 0.46%
- 10 cm % ABS Duodenum ([2]; co-administration with SSA (20:20 μmol·L−1), duodenum, n = 4): 6.13 ± 1.82%
- 10 cm % ABS Ileum ([2]; co-administration with SSA (20:20 μmol·L−1), ileum, n = 4): 12.57 ± 0.36 * %
- 10 cm % ABS Ileum ([2]; co-administration with SSA (20:20 μmol·L−1), ileum, n = 4, listed as paeoniflorin): 12.57 ± 0.36%
- 10 cm % ABS Jejunum ([2]; co-administration with SSA (20:20 μmol·L−1), jejunum, n = 4): 4.78 ± 1.15%
- fold increase of 10% ABS vs individual compound [2, 5]: 1.51 fold
- fold increase of P*eff vs individual compound [2, 5]: 2.18 fold
- 10 cm % ABS Colon ([2]; co-administration with SSD, colon, n = 4): 13.48 ± 0.57 * %
- 10 cm % ABS Colon ([2]; co-administration with SSD, colon, n = 4, listed as paeoniflorin): 13.48 ± 0.57%
- 10 cm % ABS Duodenum ([2]; co-administration with SSD, duodenum, n = 4): 6.68 ± 1.91%
- fold increase of 10% ABS vs individual compound [2, 6]: 1.63 fold
- fold increase of P*eff vs individual compound [2, 6]: 2.42 fold and ~1.90 fold
- 10 cm % ABS Ileum ([2]; co-administration with SSD, ileum, n = 4): 13.75 ± 0.99 * %
- 10 cm % ABS Ileum ([2]; co-administration with SSD, ileum, n = 4, listed as paeoniflorin): 13.75 ± 0.99%
- 10 cm % ABS Jejunum ([2]; co-administration with SSD, jejunum, n = 4): 5.77 ± 1.39%
- 10 cm % ABS Colon [2, 7]: 5.37 ± 1.19%
- P*eff Colon [2, 7]: 0.219 ± 0.051
- P*eff Colon ([2]; compound alone, 20 μmol·L−1, colon, n = 4, listed as paeoniflorin): 0.219
- 10 cm % ABS Duodenum [2, 8]: 6.57 ± 0.98%
- P*eff Duodenum [2, 8]: 0.268 ± 0.042
- P*eff Duodenum ([2]; compound alone, 20 μmol·L−1, duodenum, n = 4, listed as paeoniflorin): 0.268
- 10 cm % ABS Ileum [2, 9]: 5.23 ± 0.49%
- P*eff Ileum [2, 9]: 0.214 ± 0.021
- P*eff Ileum ([2]; compound alone, 20 μmol·L−1, ileum, n = 4, listed as paeoniflorin): 0.214
- 10 cm % ABS Jejunum [2, 10]: 5.94 ± 0.70%
- P*eff Jejunum [2, 10]: 0.243 ± 0.030
- P*eff Jejunum ([2]; compound alone, 20 μmol·L−1, jejunum, n = 4, listed as paeoniflorin): 0.243
SMILES: C[C@@]12C[C@@]3(O)O[C@@H](O1)[C@]1(COC(=O)c4ccccc4)[C@H]3C[C@@]12O[C@@H]1O[C@H](CO)[C@@H](O)[C@H](O)[C@H]1O [Paeoniflorin, paeoniflorin]
- change of electric resistance values of Caco-2 cell membranes ([1]; after individual paeoniflorin was transported): no significant change
- change of electric resistance values of Caco-2 cell membranes ([1]; paeoniflorin co-administered with saikosaponins): significantly decreased

- P*eff Colon ([2]; co-administrated with paeoniflorin (20:20 μmol·L−1), colon): 0.215 ± 0.030
- P*eff Duodenum ([2]; co-administrated with paeoniflorin (20:20 μmol·L−1), duodenum): 0.193 ± 0.028
- P*eff Ileum ([2]; co-administrated with paeoniflorin (20:20 μmol·L−1), ileum): 0.347 ± 0.036
- P*eff Jejunum ([2]; co-administrated with paeoniflorin (20:20 μmol·L−1), jejunum): 0.194 ± 0.023
- 10 cm % ABS Colon ([2]; co-administration with paeoniflorin (20:20 μmol·L−1), colon, n = 4): 3.51 ± 0.73%
- 10 cm % ABS Duodenum ([2]; co-administration with paeoniflorin (20:20 μmol·L−1), duodenum, n = 4): 4.11 ± 0.30%
- 10 cm % ABS Ileum ([2]; co-administration with paeoniflorin (20:20 μmol·L−1), ileum, n = 4): 5.20 ± 0.67%
- 10 cm % ABS Jejunum ([2]; co-administration with paeoniflorin (20:20 μmol·L−1), jejunum, n = 4): 3.49 ± 0.61%
- 10 cm % ABS Colon [2, 7]: 3.84 ± 0.10%
- P*eff Colon [2, 7]: 0.239 ± 0.042
- 10 cm % ABS Duodenum [2, 8]: 3.75 ± 0.57%
- P*eff Duodenum [2, 8]: 0.193 ± 0.028
- 10 cm % ABS Ileum [2, 9]: 6.26 ± 0.56 * %
- P*eff Ileum [2, 9]: 0.361 ± 0.014 *
- 10 cm % ABS Jejunum [2, 10]: 3.91 ± 0.60%
- P*eff Jejunum [2, 10]: 0.207 ± 0.012
SMILES: C[C@H]1O[C@@H](O[C@H]2CC[C@@]3(C)[C@@H](CC[C@]4(C)[C@@H]3C=C[C@]35OC[C@@]6(CCC(C)(C)C[C@H]63)[C@@H](O)C[C@]54C)[C@]2(C)CO)[C@H](O)[C@@H](O[C@@H]2O[C@H](CO)[C@@H](O)[C@H](O)[C@H]2O)[C@H]1O [SSA, saikosaponin a]

Source: article PMC6264397, “Interaction of the Main Components from the Traditional Chinese Drug Pair Chaihu-Shaoyao Based on Rat Intestinal Absorption” (Molecules, 2011)
